ChEMBL document CHEMBL1201862, “PubChem BioAssay data set” (2004)
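Assay format: 96-well plates, 48-hour exposure. Here, GI50 denotes the concentration required for 50% inhibition of growth.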 Active and inactive are the calls of the source. No stated cut-off is given here; in the data, active = GI50 up to about 1.1 µM and inactive = higher.

Assays:
Assay in all cases: NCI-60 cell line screen, 48 h
A549 = test system: A549
ACHN = test system: ACHN
EKVX = test system: EKVX
HL-60 = test system: HL-60
HOP-62 = test system: HOP-62
LOX IMVI = test system: LOX IMVI
M14 = test system: M14
Malme-3M = test system: Malme-3M
NCI-H460 = test system: NCI-H460
OVCAR-4 = test system: OVCAR-4
OVCAR-5 = test system: OVCAR-5
SF-268 = test system: SF-268
SF-295 = test system: SF-295
SK-MEL-28 = test system: SK-MEL-28
SK-MEL-2 = test system: SK-MEL-2
SW-620 = test system: SW-620
TK-10 = test system: TK-10
UACC-62 = test system: UACC-62

| Structure (SMILES) | GI50 (A549) | GI50 (ACHN) | GI50 (EKVX) | GI50 (HL-60) | GI50 (HOP-62) | GI50 (LOX IMVI) | GI50 (M14) | GI50 (Malme-3M) | GI50 (NCI-H460) | GI50 (OVCAR-4) | GI50 (OVCAR-5) | GI50 (SF-268) | GI50 (SF-295) | GI50 (SK-MEL-28) | GI50 (SK-MEL-2) | GI50 (SW-620) | GI50 (TK-10) | GI50 (UACC-62) |
| --- | --- | --- | --- | --- | --- | --- | --- | --- | --- | --- | --- | --- | --- | --- | --- | --- | --- | --- |
| CCCCN(C)CC(C(C)=O)C(c1ccccc1)c1c(O)c2ccccc2oc1=O (stereo not drawn) | > 100 µM (inactive) | > 100 µM (inactive) | > 100 µM (inactive) | > 100 µM (inactive) | > 100 µM (inactive) | > 100 µM (inactive) | > 100 µM (inactive) | > 100 µM (inactive) | > 100 µM (inactive) | > 100 µM (inactive) | > 100 µM (inactive) | > 100 µM (inactive) | > 100 µM (inactive) | > 100 µM (inactive) | > 100 µM (inactive) | > 100 µM (inactive) | > 100 µM (inactive) | > 100 µM (inactive) |
| O=C1c2c(nc3ccccc3c2-c2ccccc2)CN1Nc1ccccc1 | > 100 µM (inactive) | – | > 100 µM (inactive) | 45.3 µM (inactive) | 53.8 µM (inactive) | > 100 µM (inactive) | > 100 µM (inactive) | > 100 µM (inactive) | – | > 100 µM (inactive) | > 100 µM (inactive) | > 100 µM (inactive) | – | – | > 100 µM (inactive) | > 100 µM (inactive) | > 100 µM (inactive) | > 100 µM (inactive) |
| COC(=O)C1=C(c2ccc3c(c2)OCO3)OC(c2ccc3c(c2)OCO3)C1 (stereo not drawn) | 78.2 µM (inactive) | 80.9 µM (inactive) | > 100 µM (inactive) | > 100 µM (inactive) | > 100 µM (inactive) | 28.3 µM (inactive) | > 100 µM (inactive) | > 100 µM (inactive) | > 100 µM (inactive) | > 100 µM (inactive) | > 100 µM (inactive) | > 100 µM (inactive) | 71.9 µM (inactive) | > 100 µM (inactive) | > 100 µM (inactive) | 67 µM (inactive) | > 100 µM (inactive) | > 100 µM (inactive) |
| NCCCN(CCCN)CCCNCc1c2ccccc2c(CNCCCN(CCCN)CCCN)c2ccccc12 | 24.3 µM (inactive) | 11.7 µM (inactive) | 12.8 µM (inactive) | 11.6 µM (inactive) | 14.4 µM (inactive) | 19.1 µM (inactive) | 13.6 µM (inactive) | 8.07 µM (inactive) | 12 µM (inactive) | 17.2 µM (inactive) | 42 µM (inactive) | 18.3 µM (inactive) | 12.3 µM (inactive) | 7.16 µM (inactive) | 23.7 µM (inactive) | 13.3 µM (inactive) | 10.8 µM (inactive) | 7.21 µM (inactive) |
| COC/C=C\COC | > 100 µM (inactive) | > 100 µM (inactive) | > 100 µM (inactive) | > 100 µM (inactive) | > 100 µM (inactive) | > 100 µM (inactive) | > 100 µM (inactive) | > 100 µM (inactive) | > 100 µM (inactive) | > 100 µM (inactive) | > 100 µM (inactive) | – | > 100 µM (inactive) | > 100 µM (inactive) | > 100 µM (inactive) | > 100 µM (inactive) | > 100 µM (inactive) | > 100 µM (inactive) |
| CCCCCCCCCc1cc(=O)c2ccc(O)cc2o1 | 37.6 µM (inactive) | 42.2 µM (inactive) | > 100 µM (inactive) | 11.6 µM (inactive) | > 100 µM (inactive) | 40.2 µM (inactive) | > 100 µM (inactive) | > 100 µM (inactive) | 57.8 µM (inactive) | 22.3 µM (inactive) | > 100 µM (inactive) | 44.8 µM (inactive) | 47 µM (inactive) | > 100 µM (inactive) | 10.3 µM (inactive) | 67.6 µM (inactive) | 30 µM (inactive) | > 100 µM (inactive) |
| COc1cc(C2c3cc4c(cc3[C@@H](OCCN(C)C)C3COC(=O)[C@H]23)OCO4)cc(OC)c1O (stereo partly drawn) | 0.0655 µM (active) | 0.1 µM (active) | 1.65 µM (inactive) | 0.036 µM (active) | 0.045 µM (active) | 0.145 µM (active) | 0.384 µM (active) | 0.388 µM (active) | 0.0127 µM (active) | 2.07 µM (inactive) | 0.771 µM (active) | 0.33 µM (active) | 0.145 µM (active) | 0.993 µM (active) | 1.29 µM (inactive) | 0.579 µM (active) | 1.58 µM (inactive) | 0.243 µM (active) |
| COc1c(Cl)c2c(c(OC)c1OC)-c1ccc(OC)c(=O)c(Cl)c1C(NC(C)=O)CC2 (stereo not drawn) | 0.225 µM (active) | 0.668 µM (active) | 7.35 µM (inactive) | 0.169 µM (active) | 0.306 µM (active) | 0.296 µM (active) | 0.244 µM (active) | 0.155 µM (active) | 0.134 µM (active) | 27.1 µM (inactive) | – | 0.212 µM (active) | 0.14 µM (active) | 0.288 µM (active) | 0.284 µM (active) | 0.12 µM (active) | 0.69 µM (active) | 0.108 µM (active) |
